Experimental data: ChEMBL document CHEMBL5705884, “Breaching the DNA damage checkpoint via PF-00477736, a novel small-molecule inhibitor of checkpoint kinase 1” (Mol Cancer Ther, 2008)
Activity calls are given as the source filed them. The rule behind the calls is not given here.

Experiments:
[1] = tested on: K562; assay: Potentiation factor, ratio of IC50 for human K562 cells to IC50 for human K562 cells in presence of gemcitabine; assay type: functional
[2] = tested on: COLO 205; assay: Antitumor activity against human COLO 205 cells xenografted in athymic nude mouse model assessed as tumor growth delay by measuring test to control tumor ratio at 40 mg/kg, ip administered twice daily in presence of gemcitabine (Gemcitabine alone= 8%); assay type: functional
[3] = tested on: MDA-MB-231; assay: Potentiation factor, ratio of IC50 for human MDA-MB-231 cells to IC50 for human MDA-MB-231 cells in presence of carboplatin; assay type: functional
[4] = tested on: HT-29; assay: Potentiation of camptothecin induced cytotoxicity in human HT-29 cells assessed as cell survival at 180 nM measured after 4 to 48 hrs by coulter counter method relative to camptothecin alone; assay type: functional; details: time 4-48 hrs, read-out: Activity
[5] = tested on: CA46; assay: Inhibition of camptothecin induced DNA damage in mutated human CA46 cells assessed as increase in mitotic index by measuring histone H3 phosphorylation at S10 residue at 0.001 to 1 uM measured after 16 hrs presence of nocodazole by dot blot assay; assay type: functional, cell-based; details: CA46, 16 h
[6] = tested on: COLO 205; assay: Antitumor activity against human COLO 205 cells xenografted in athymic nude mouse model assessed as tumor growth delay by measuring test to control tumor ratio at 30 mg/kg, ip administered twice daily in presence of gemcitabine (Gemcitabine alone = 3%); assay type: functional
[7] = tested on: COLO 205; assay: Antitumor activity against human COLO 205 cells xenografted in athymic nude mouse model assessed as gross log cell kill at 24 mg/kg, ip administered twice daily in presence of gemcitabine (Gemcitabine alone = 0.5%); assay type: functional
[8] = tested on: COLO 205; assay: Antitumor activity against human COLO 205 cells xenografted in athymic nude mouse model assessed as tumor growth delay by measuring test to control tumor ratio at 15 mg/kg, ip administered once daily in presence of gemcitabine (Gemcitabine alone = 3%); assay type: functional
[9] = tested on: COLO 205; assay: Antitumor activity against human COLO 205 cells xenografted in athymic nude mouse model assessed as tumor growth delay by measuring test to control tumor ratio at 15 mg/kg, ip administered twice daily in presence of gemcitabine (Gemcitabine alone = 3%); assay type: functional
[10] = tested on: CA46; assay: Inhibition of camptothecin induced DNA damage in p-53 mutated human CA46 cells assessed as G2 checkpoint abrogation at 0.001 to 1 uM measured after 16 hrs presence of nocodazole by dot blot assay; assay type: functional, cell-based; details: dose 0.001-1 µM
[11] = Clearance in Sprague-Dawley rat plasma at 4 mg/kg, iv administered as bolus dose by LCMS analysis; assay type: ADME, organism-based
[12] = tested on: COLO 205; assay: Antitumor activity against human COLO 205 cells xenografted in athymic nude mouse model assessed as tumor growth inhibition at 7.5 mg/kg, ip administered twice daily in presence of gemcitabine (Gemcitabine alone = 40%); assay type: functional; details: read-out: TGI
[13] = tested on: COLO 205; assay: In vivo inhibition of Chk1 in athymic nude mouse xenografted with gemcitabine treated human COLO 205 cells assessed as increase in histone H3 phosphorylation level at Ser10 residues at 7.5 to 15 mg/kg by immunohistochemical analysis; assay type: functional, organism-based; details: dose 7.5-15 mg/kg
[14] = tested on: HT-29; assay: Inhibition of gemcitabine induced cell cycle arrest in human HT-29 cells assessed as increase in G0-G1 cell population pretreated with gemcitabine followed by compound treatment and measured after 10 to 48 hrs by flow cytometry analysis; assay type: functional, cell-based; details: time 10-48 hrs
[15] = tested on: COLO 205; assay: Antitumor activity against human COLO 205 cells xenografted in athymic nude mouse model assessed as tumor growth inhibition at 20 mg/kg, ip administered once daily in presence of gemcitabine (Gemcitabine alone= 58%); assay type: functional; details: read-out: TGI
[16] = tested on: COLO 205; assay: Antitumor activity against human COLO 205 cells xenografted in athymic nude mouse model assessed as potentiated tumor growth inhibition at 15 mg/kg, ip administered twice daily in presence of gemcitabine relative to control; assay type: functional; details: read-out: TGI
[17] = Cmax in nu/nu mouse at 40 mg/kg, ip by LCMS analysis; assay type: ADME, organism-based; details: in vivo
[18] = tested on: HT-29; assay: Inhibition of cell cycle arrest in human HT-29 cells assessed as inhibition of gemcitabine induced S-phase arrest pretreated with gemcitabine followed by compound treatment and measured after 10 to 48 hrs by flow cytometry analysis; assay type: functional, cell-based; details: time 10-48 hrs
[19] = tested on: COLO 205; assay: Antitumor activity against human COLO 205 cells xenografted in athymic nude mouse model assessed as gross log cell kill at 15 mg/kg, ip administered once daily in presence of gemcitabine (Gemcitabine alone = 0.27%); assay type: functional
[20] = tested on: COLO 205; assay: Antitumor activity against human COLO 205 cells xenografted in athymic nude mouse model assessed as gross log cell kill at 7.5 mg/kg, ip administered twice daily in presence of gemcitabine (Gemcitabine alone = 0.27%); assay type: functional
[21] = tested on: MDA-MB-231; assay: Potentiation factor, ratio of IC50 for human MDA-MB-231 cells to IC50 for human MDA-MB-231 cells in presence of mytomicin-C; assay type: functional
[22] = tested on: PC-3; assay: Potentiation factor, ratio of IC50 for human PC-3 cells to IC50 for human PC-3 cells in presence of doxorubicin; assay type: functional
[23] = tested on: COLO 205; assay: Antitumor activity against human COLO 205 cells xenografted in athymic nude mouse model assessed as tumor growth inhibition at 30 mg/kg, ip administered twice daily in presence of gemcitabine (Gemcitabine alone = 40%); assay type: functional; details: read-out: TGI
[24] = tested on: MDA-MB-231; assay: Potentiation factor, ratio of IC50 for human MDA-MB-231 cells to IC50 for human MDA-MB-231 cells in presence of SN-38; assay type: functional
[25] = tested on: COLO 205; assay: Antitumor activity against human COLO 205 cells xenografted in athymic nude mouse model assessed as tumor growth delay by measuring test to control tumor ratio at 12 mg/kg, ip administered once daily in presence of gemcitabine (Gemcitabine alone= 8%); assay type: functional
[26] = tested on: COLO 205; assay: Antitumor activity against human COLO 205 cells xenografted in athymic nude mouse model assessed as tumor growth inhibition at 30 mg/kg, ip administered once daily in presence of gemcitabine (Gemcitabine alone = 40%); assay type: functional; details: read-out: TGI
[27] = tested on: COLO 205; assay: Potentiation factor, ratio of IC50 for human COLO 205 cells to IC50 for human COLO 205 cells in presence of carboplatin; assay type: functional
[28] = tested on: COLO 205; assay: Antitumor activity against human COLO 205 cells xenografted in athymic nude mouse model assessed as tumor growth inhibition at 12 mg/kg, ip administered once daily in presence of gemcitabine (Gemcitabine alone= 58%); assay type: functional; details: read-out: TGI
[29] = tested on: HT-29; assay: Antiproliferative activity against human HT-29 cells deficit of p53 expression assessed as inhibition of cell growth measured after 96 hrs by MTT assay; assay type: functional, cell-based; details: HT-29, 96 h
[30] = molecular target: Fibroblast growth factor receptor 3 (Homo sapiens, UniProt P22607); assay: Inhibition of FGFR3 (unknown origin)
Fibroblast growth factor receptor 3, sequence (P22607 whole entry): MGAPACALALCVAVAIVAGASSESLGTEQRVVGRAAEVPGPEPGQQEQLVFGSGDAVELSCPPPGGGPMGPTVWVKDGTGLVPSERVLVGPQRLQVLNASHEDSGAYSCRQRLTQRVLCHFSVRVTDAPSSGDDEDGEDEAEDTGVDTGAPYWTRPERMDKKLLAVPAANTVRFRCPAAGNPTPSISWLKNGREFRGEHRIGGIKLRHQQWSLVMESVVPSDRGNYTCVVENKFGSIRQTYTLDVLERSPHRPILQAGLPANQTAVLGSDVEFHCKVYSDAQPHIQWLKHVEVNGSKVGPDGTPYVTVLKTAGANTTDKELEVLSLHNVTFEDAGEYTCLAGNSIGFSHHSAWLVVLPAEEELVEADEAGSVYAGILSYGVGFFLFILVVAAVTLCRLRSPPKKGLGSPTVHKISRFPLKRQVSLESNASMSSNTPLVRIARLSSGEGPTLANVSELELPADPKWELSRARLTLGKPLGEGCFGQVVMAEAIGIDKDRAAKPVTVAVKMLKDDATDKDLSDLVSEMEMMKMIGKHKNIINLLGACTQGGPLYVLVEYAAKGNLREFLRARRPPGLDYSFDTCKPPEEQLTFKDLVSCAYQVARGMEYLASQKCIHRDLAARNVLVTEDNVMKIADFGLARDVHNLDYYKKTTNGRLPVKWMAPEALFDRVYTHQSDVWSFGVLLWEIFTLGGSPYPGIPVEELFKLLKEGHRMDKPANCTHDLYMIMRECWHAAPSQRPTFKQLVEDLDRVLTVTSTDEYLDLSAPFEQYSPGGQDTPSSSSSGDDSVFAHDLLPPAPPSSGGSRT

[31] = tested on: HT-29; assay: Inhibition of gemcitabine induced cell cycle arrest in human HT-29 cells assessed as increase in G2-M cell population pretreated with gemcitabine followed by compound treatment and measured after 10 to 48 hrs by flow cytometry analysis; assay type: functional, cell-based; details: time 10-48 hrs
[32] = tested on: COLO 205; assay: Antitumor activity against human COLO 205 cells xenografted in athymic nude mouse model assessed as tumor growth delay by measuring test to control tumor ratio at 24 mg/kg, ip administered twice daily in presence of gemcitabine (Gemcitabine alone= 8%); assay type: functional
[33] = tested on: HT-29; assay: Potentiation factor, ratio of IC50 for human HT-29 cells to IC50 for human HT-29 cells in presence of SN-38; assay type: functional
[34] = molecular target: Macrophage colony-stimulating factor 1 receptor (Homo sapiens, UniProt P07333); assay: Inhibition of Fms (unknown origin)
Macrophage colony-stimulating factor 1 receptor, sequence (P07333 whole entry): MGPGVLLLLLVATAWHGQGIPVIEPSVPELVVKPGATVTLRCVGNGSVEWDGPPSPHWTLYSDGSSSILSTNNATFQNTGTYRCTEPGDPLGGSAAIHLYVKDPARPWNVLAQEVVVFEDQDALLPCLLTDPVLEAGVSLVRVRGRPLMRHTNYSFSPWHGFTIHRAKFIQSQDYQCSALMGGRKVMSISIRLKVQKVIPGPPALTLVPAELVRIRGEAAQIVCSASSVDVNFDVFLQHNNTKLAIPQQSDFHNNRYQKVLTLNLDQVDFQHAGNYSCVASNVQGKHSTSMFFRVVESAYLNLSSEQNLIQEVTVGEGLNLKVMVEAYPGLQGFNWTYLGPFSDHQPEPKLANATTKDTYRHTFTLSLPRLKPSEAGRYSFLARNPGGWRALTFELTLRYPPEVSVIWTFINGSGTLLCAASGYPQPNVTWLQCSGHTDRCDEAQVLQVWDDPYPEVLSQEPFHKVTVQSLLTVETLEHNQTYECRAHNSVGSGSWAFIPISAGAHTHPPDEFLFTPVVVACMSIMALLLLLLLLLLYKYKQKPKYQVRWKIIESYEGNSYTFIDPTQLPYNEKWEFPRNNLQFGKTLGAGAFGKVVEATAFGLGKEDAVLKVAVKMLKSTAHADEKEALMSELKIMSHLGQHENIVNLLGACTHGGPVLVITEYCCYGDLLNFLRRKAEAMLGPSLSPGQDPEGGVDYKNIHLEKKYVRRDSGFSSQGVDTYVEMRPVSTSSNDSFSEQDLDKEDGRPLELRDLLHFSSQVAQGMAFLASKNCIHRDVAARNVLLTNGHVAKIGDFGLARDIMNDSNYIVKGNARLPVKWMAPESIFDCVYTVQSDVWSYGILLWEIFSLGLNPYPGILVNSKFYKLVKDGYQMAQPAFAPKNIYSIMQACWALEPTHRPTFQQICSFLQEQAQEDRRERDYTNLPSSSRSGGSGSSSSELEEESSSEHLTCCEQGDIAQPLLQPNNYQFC

Cn1cc(-c2[nH]c3cc(NC(=O)[C@H](N)C4CCCCC4)cc4c3c2C=NNC4=O)cn1
PF50 [1]: 5.6
T/C [2]: 20
PF50 [3]: 2.55
viability at 0.18 µM [4]: 90%
EC50 [5]: 45 nM
T/C [6]: 9.75
LCK [7]: 0.75
T/C [8]: 7.75
T/C [9]: 11.25
inhibition [10]: Active
clearance [11]: 11.8 mL/min/kg
inhibition in vivo at 7.5 mg/kg [12]: 70%
inhibition [13]: Active
inhibition [14]: Active
inhibition in vivo at 20 mg/kg [15]: 76%
inhibition in vivo at 15 mg/kg [16]: 44%
Cmax [17]: 6780 ng/mL
inhibition [18]: Active
LCK [19]: 0.71
LCK [20]: 1.21
PF50 [21]: 1.2
PF50 [22]: 1.5
inhibition in vivo at 30 mg/kg [23]: 78%
PF50 [24]: 2.4
T/C [25]: 8.5
inhibition in vivo at 30 mg/kg [26]: 64%
PF50 [27]: 5.4
inhibition in vivo at 12 mg/kg [28]: 68%
IC50 [29]: 1800 nM
IC50 [30]: 47 nM
inhibition [31]: Active
T/C [32]: 12
PF50 [33]: 3.7
IC50 [34]: 20 nM
